Measurements taken from patent publication US20150185224A1, “[…] CANCER RESPONSIVENESS TO BCG” (MEMORIAL SLOAN-KETTERING CANCER CENTER, priority 2012, published 2015).

Assays:
Assay type in all cases: cell-based, human
[1] = test system: J82, T24, and UM-UC-3 bladder cancer cell lines
[2] = test system: MGH-U4 transfected with PTEN shRNA
[3] = test system: VMCUB-3 transfected with H-ras (G12V)
J82 = test system: J82
T24 = test system: T24
UM-UC-3 = test system: UM-UC-3
VMCUB-3 = test system: VMCUB-3
MGH-U3 = test system: MGH-U3

Compound: COc1ccc2c(c1)c(C1=C(c3c[nH]c4ccccc34)C(=O)NC1=O)cn2CCCN(C)C [Gö-6983]
- effect on BCG uptake [1]: not inhibited

Compound: Oc1ccc2ccccc2c1SSc1c(O)ccc2ccccc12 [IPA-3]
- effect on the increase in BCG uptake after PTEN knockdown [2]: completely abrogated the increase in BCG uptake
- effect on increased BCG uptake in a cell line with activated Ras [3]: inhibited increased BCG uptake

Compound: C[C@@H](N)[C@H]1CC[C@H](C(=O)Nc2ccncc2)CC1 [Y-27632]
- effect on BCG uptake [1]: did not have a significant effect

Compound: Cc1ccc2c(c1)C(=O)C1(O)CCN(c3ccccc3)C1=N2 (stereo not shown) [blebbistatin]
- effect on BCG uptake [1]: not inhibited

Compound: O=c1c(-c2ccc(O)cc2)coc2cc(O)cc(O)c12 [genistein]
- effect on BCG uptake (J82): significantly inhibited
- effect on BCG uptake (T24): not
- effect on BCG uptake (UM-UC-3): not

Compound: PTEN shRNA (CCGGCCACAGCTAGAACTTATCAAACTCGAGTTTGATAAGTTCTAGCTGT)
- increase in uptake of BCG compared to non-targeting shRNA control (VMCUB-3): not seen
- increase in uptake of BCG compared to non-targeting shRNA control (MGH-U3): approximately 2 fold
